Experimental data published in patent US9949485B2, “Use of acylsulfonamides for improving plant yield” (BAYER CROPSCIENCE AG, priority 2013, dated 2018).

What was measured:
[1] = test system: Triticum aestivum variety “AC Harvest”; experiment: Growth chamber trial, post-emergence spray application, grain yield at full maturity; format: in vivo; conditions: single active ingredient, dose rate 10 g ai/ha; for change in vivo at 10 g/ha / response vs control in vivo at 10 g/ha: Triticum aestivum, post-emergence; for change in vivo at 10 g/ha: grain yield difference, read-out: Difference (%) vs. UTC; for response vs control in vivo at 10 g/ha: grain yield relative to UTC (100.0); for Grain Yield, g/plant: spray at BBCH 56-61, slightly reduced water, average of five replicates
[2] = test system: Triiticum aestivum seeds (TRZAS); experiment: Seed treatment trial, grain yield; format: in vivo, Triticum aestivum; conditions: for Difference (%) vs. UTC: grain yield difference; for Relative, %: grain yield relative to UTC (100.0)
[3] = single active ingredient, 1 g ai/kg seed

Row | SMILES | change in vivo at 10 g/ha [1] [%] | response vs control in vivo at 10 g/ha [1] [%] | also measured
1 | CN/C(=N\[N+](=O)[O-])NCc1cnc(Cl)s1 [Clothianidin (I-3), clothianidin] | 12.3 | 112 | 
2 | CNC(=O)Nc1ccc(S(=O)(=O)NC(=O)c2ccccc2OC)cc1 [Compound (A1), N-(2-methoxybenzoyl)-4-[(methylaminocarbonyl)amino]benzenesulfonamide] | 12.3 | 112 | Grain Yield, g/plant ([2]; dose rate 0.5 g ai/kg seed): 1.90 g/plant; Difference (%) vs. UTC ([2]; 0.5 g ai/kg seed): +5.6%; Difference (%) vs. UTC [2, 3]: +3.9%; Relative, % ([2]; 0.5 g ai/kg seed): 105.6%; Relative, % [2, 3]: 103.9%; Grain Yield, g/plant ([2]; single active ingredient, dose rate 1 g ai/kg seed): 1.87 g/plant; Grain Yield, g/plant [1]: 1.19 g/plant
3 | CC1COC(Cn2cncn2)(c2ccc(Oc3ccc(Cl)cc3)cc2Cl)O1 (centres unmarked) [Difenoconazole (F-105), difenoconazole] | -3.8 | 96.2 | 
4 | N#Cc1nn(-c2c(Cl)cc(C(F)(F)F)cc2Cl)c(N)c1[S+]([O-])C(F)(F)F (centres unmarked) [Fipronil (I-8), fipronil] | 12.3 | 112 | 
5 | O=[N+]([O-])NC1=NCCN1Cc1ccc(Cl)nc1 [Imidacloprid (I-11), imidacloprid] | 7.5 | 108 | 
6 | OC(Cc1ccccc1Cl)(Cn1nc[nH]c1=S)C1(Cl)CC1 (centres unmarked) [Prothioconazole (F-124), prothioconazole] | -3.8 | 96.2 | 
7 | COC(=O)N(OC)c1ccccc1COc1ccn(-c2ccc(Cl)cc2)n1 [Pyraclostrobin (F-57), pyraclostrobin] | 17 | 117 | 
8 | CN1COCN(Cc2cnc(Cl)s2)/C1=N\[N+](=O)[O-] [Thiamethoxam (I-19), thiamethoxam] | 22.6 | 123 | Grain Yield, g/plant [1]: 1.30 g/plant
9 | CON=C(C(=O)OC)c1ccccc1CON=C(C)c1cccc(C(F)(F)F)c1 [Trifloxystrobin (F-60), trifloxystrobin] | 5.7 | 106 | 
